The text below walks through data of patent EP4813978A1, “COMPOUND TARGETING UBIQUITIN KRAS PROTEIN DEGRADATION AGENT, AND USE THEREOF” (Betta Pharmaceuticals Co., Ltd, priority 2023, dated 2025).

What all share (assay type): cell-based
One experiment relates to AGS. The experiment is described as follows: Cell proliferation assay (Cell-titer Glo), AGS. The note with it: KRAS G12D, 96 h. The method, then:
(§1) Cells with different mutations were seeded in low-attachment transparent 96-well plates at the seeding densities shown in Table 1, and incubated overnight in a cell culture incubator. After the cells adhered, the test compounds were added to the 96-well plates at final concentrations of 20000 nM, 5000 nM, 1250 nM, 312.5 nM, 78.13 nM, 19.53 nM, 4.88 nM, 1.22 nM, 0.31 nM, 0 nM (the final concentration of DMSO was 0.25% in all wells). After culturing at 37°C for 96 h, 50 µL of Cell-titer Glo working solution was added to each well. The plates were shaken to mix and then incubated at room temperature for 10 min. Luminescence values were read on a multimode microplate reader, and the luminescence data were converted into percentage inhibition. The percentage of cell proliferation inhibition was calculated according to the following formula: Percentage inhibition = (1−(TestValue−Blank)/(MaxValue−Blank)) × 100% [formula]
(§2) ("Max value" is from the 0.25% DMSO control wells, "Blank" is from the blank medium control wells, and "Test Value" is from the compound-treated wells).
(§3) Curve fitting was performed using GraphPad Prism software to obtain IC50 (nM) values.

The next experiment concerns SW620. The experiment is described as follows: Cell proliferation assay (Cell-titer Glo), SW620. As to conditions: Homo sapiens, SW-620, SW620, KRAS G12V, 96 h. How it is done: as §1, §2, §3
The test system of a further experiment is H358. The experiment is described as follows: Cell proliferation assay (Cell-titer Glo), H358. The note with it: Homo sapiens, NCI-H358, H358, KRAS G12C, 96 h. The method, then:
as §1, §2, §3

The subject of a further experiment is Mia-Paca2. The experiment is described as follows: Cell proliferation assay (Cell-titer Glo), Mia-Paca2. The note with it: 96 h. How it is done:
as §1, §2, §3

Setting [1] is: Homo sapiens, MIA PaCa-2, Mia-Paca2, KRAS G12C.

As to `CCc1c(F)ccc2cc(O)cc(-c3ncc4c(N5CCCCC(=O)C5)nc(OCC5(CN6CCC(Oc7cnc(-c8cn([C@H](C(=O)N9C[C@H](O)C[C@H]9C(=O)N[C@@H](C)c9ccc(-c%10scnc%10C)cc9)C(C)C)nn8)cn7)CC6)CC5)nc4c3F)c12` [Compound 113, (2S,4R)-1-((S)-2-(4-(5-((1-((1-(((7-(8-ethyl-7-fluoro-3-hydroxynaphthalen-1-yl)-8-fluoro-4-(3-oxoazepan-1-yl)pyrido[4,3-d]pyrimidin-2-yl)oxy)methyl)cyclopropyl)methyl)piperidin-4-yl)oxy)pyrazin-2-yl)-1H-1,2,3-triazol-1-yl)-3-methylbutanoyl)-4-hydroxy-N-((S)-1-(4-(4-methylthiazol-5-yl)phenyl)ethyl)pyrrolidine-2-carboxamide], the values for the IC50 with AGS (Homo sapiens) and in the experiment with SW620 were 80 nM and 325 nM, respectively.
Regarding `CCc1c(F)ccc2cc(O)cc(-c3ncc4c(N5CCC[C@](O)(CC#N)C5)nc(OCC5(CN6CCC(Oc7cnc(-c8cn([C@H](C(=O)N9C[C@H](O)C[C@H]9C(=O)N[C@@H](C)c9ccc(-c%10scnc%10C)cc9)C(C)C)nn8)cn7)CC6)CC5)nc4c3F)c12` [Compound 57, (2S,4R)-1-((S)-2-(4-(5-((1-((1-(((4-((S)-3-(cyanomethyl)-3-hydroxypiperidin-1-yl)-7-(8-ethyl-7-fluoro-3-hydroxynaphthalen-1-yl)-8-fluoropyrido[4,3-d]pyrimidin-2-yl)oxy)methyl)cyclopropyl)methyl)piperidin-4-yl)oxy)pyrazin-2-yl)-1H-1,2,3-triazol-1-yl)-3-methylbutanoyl)-4-hydroxy-N-((S)-1-(4-(4-methylthiazol-5-yl)phenyl)ethyl)pyrrolidine-2-carboxamide], the IC50 (in general, the concentration needed to halve the response being measured) in the experiment with AGS (Homo sapiens) was 5 nM; in the experiment with SW620, 18 nM; with H358, 20 nM.
On to `CCc1c(F)ccc2cc(O)cc(-c3ncc4c(N5CCOC[C@@](C)(O)C5)nc(OCC5(CN6CCC(Oc7cnc(-c8cn([C@H](C(=O)N9C[C@H](O)C[C@H]9C(=O)N[C@@H](C)c9ccc(-c%10scnc%10C)cc9)C(C)C)nn8)cn7)CC6)CC5)nc4c3F)c12` [Compound 114, (2S,4R)-1-((S)-2-(4-(5-((1-((1-(((7-(8-ethyl-7-fluoro-3-hydroxynaphthalen-1-yl)-8-fluoro-4-((S)-6-hydroxy-6-methyl-1,4-oxazepan-4-yl)pyrido[4,3-d]pyrimidin-2-yl)oxy)methyl)cyclopropyl)methyl)piperidin-4-yl)oxy)pyrazin-2-yl)-1H-1,2,3-triazol-1-yl)-3-methylbutanoyl)-4-hydroxy-N-((S )-1-(4-(4-methylthiazol-5-yl)phenyl)ethyl)pyrrolidine-2-carboxamide], for which the IC50 in the experiment on AGS (Homo sapiens) worked out at 2.7 nM; in the experiment with SW620 it was 10 nM.
As for “(2S,4R)-1-((2S)-2-(4-(5-((1-((1-(((7-(8-ethyl-7-fluoro-3-hydroxynaphthalen-1-yl)-8-fluoro-4-(3-h ydroxy-3-methylazepan-1-yl)pyrido[4,3-d]pyrimidin-2-yl)oxy)methyl)cyclopropyl)methyl)piperi din-4-yl)oxy)pyrazin-2-yl)-1H-1,2,3-triazol-1-yl)-3-methylbutanoyl)-4-hydroxy-N-((S)-1-(4-(4-methylthiazol-5-yl)phenyl)ethyl)pyrrolidine-2-carboxamide [Compound 134]”, the IC50 in the experiment on AGS stood at 34 nM; with Mia-Paca2 (Mia-Paca2, KRAS G12C) it was 67 nM.
Take `CCc1c(F)ccc2cc(O)cc(-c3ncc4c(N5CCCC6(CCO6)C5)nc(OCC5(CN6CCN(c7ccc(-c8cn([C@H](C(=O)N9C[C@H](O)C[C@H]9C(=O)N[C@@H](C)c9ccc(-c%10scnc%10C)cc9)C(C)C)nn8)cn7)CC6)CC5)nc4c3F)c12` (stereo partly drawn) [Compound 111, (2S,4R)-1-((2S)-2-(4-(6-(4-((1-(((7-(8-ethyl-7-fluoro-3-hydroxynaphthalen-1-yl)-8-fluoro-4-(1-oxa-6-azaspiro[3.5]nonan-6-yl)pyrido[4,3-d]pyrimidin-2-yl)oxy)methyl)cyclopropyl)methyl)piperazin-1-yl)pyridin-3-yl)-1H-1,2,3-triazol-1-yl)-3-methylbutanoyl)-4-hydroxy-N-((S)-1-(4-(4-methylthiazol-5-yl)phenyl)ethyl)pyrrolidine-2-carboxamide]: the IC50 is 30 nM in the experiment with AGS (Homo sapiens), 43 nM in the experiment on SW620 and 56 nM with H358.
Turning to `CCc1c(F)ccc2cc(O)cc(-c3nc4c5c(nc(OCC6(CN7CCC(Oc8cnc(-c9cn([C@H](C(=O)N%10C[C@H](O)C[C@H]%10C(=O)N[C@@H](C)c%10ccc(-c%11scnc%11C)cc%10)C(C)C)nn9)cn8)CC7)CC6)nc5c3F)N3CCCC(C)(O)C3CO4)c12` (stereo partly drawn) [Compound 133, (2S,4R)-1-((2S)-2-(4-(5-((1-((1-(((5-(8-ethyl-7-fluoro-3-hydroxynaphthalen-1-yl)-4-fluoro-9-hydroxy-9-methyl-8,8a,9,10,11,12-hexahydro-7-oxa-1,3,6,12a-tetraazabenzo[4,5]cyclohepta[1,2,3-de]naphthalen-2-yl)oxy)methyl)cyclopropyl)methyl)piperidin-4-yl)oxy)pyrazin-2-yl)-1H-1,2,3-triazol-1-yl)-3-methylbutanoyl)-4-hydroxy-N-((S)-1-(4-(4-methylthiazol-5-yl)phenyl)ethyl)pyrrolidine-2-carboxamide], the IC50 with AGS (Homo sapiens) turned out to be 15 nM; in the experiment with SW620, 36 nM; in the experiment with H358 it was 40 nM; with Mia-Paca2 (setting [1]), 26 nM.
For `CCc1c(F)ccc2cc(O)cc(-c3ncc4c(N5CCOC[C@@](C)(O)C5)nc(OCC5(CN6CCC(Oc7cnc(-c8cn([C@H](C(=O)N9C[C@H](O)C[C@H]9C(=O)N[C@@H](CN(C)C)c9ccc(-c%10scnc%10C)cc9)C(C)C)nn8)cn7)CC6)CC5)nc4c3F)c12` [Compound 131, (2S,4R)-N-((R)-2-(dimethylamino)-1-(4-(4-methylthiazol-5-yl)phenyl)ethyl)-1-((S)-2-(4-(5-((1-((1-(((7-(8-ethyl-7-fluoro-3-hydroxynaphthalen-1-yl)-8-fluoro-4-((S)-6-hydroxy-6-methyl-1,4-oxazepan-4-yl)pyrido[4,3-d]pyrimidin-2-yl)oxy)methyl)cyclopropyl)methyl)piperidin-4-yl)oxy)pyrazin-2-yl)-1H-1,2,3-triazol-1-yl)-3-methylbutanoyl)-4-hydroxypyrrolidine-2-carboxamide], in that order: 4.4 nM, 15 nM, 8.4 nM and 5.3 nM.
For the compound `CCc1c(F)ccc2cc(O)cc(-c3ncc4c(N5CCCOCC5)nc(OCC5(CN6CCC(Oc7cnc(-c8cn([C@H](C(=O)N9C[C@H](O)C[C@H]9C(=O)N[C@@H](C)c9ccc(-c%10scnc%10C)cc9)C(C)C)nn8)cn7)CC6)CC5)nc4c3F)c12` [Compound 5, (2S,4R)-1-((S)-2-(4-(5-((1-((1-(((7-(8-ethyl-7-fluoro-3-hydroxynaphthalen-1-yl)-8-fluoro-4-(1,4-oxazepan-4-yl)pyrido[4,3-d]pyrimidin-2-yl)oxy)methyl)cyclopropyl)methyl)piperidin-4-yl)oxy)pyrazin-2-yl)-1H-1,2,3-triazol-1-yl)-3-methylbutanoyl)-4-hydroxy-N-((S)-1-(4-(4-methylthiazol-5-yl)phenyl)ethyl)pyrrolidine-2-carboxamide], the IC50 was determined as 20 nM with AGS (Homo sapiens), 34 nM in the experiment with SW620 and 55 nM with H358.
Take `CCc1c(F)ccc2cc(O)cc(-c3ncc4c(N5CCCS(=O)(=O)C5)nc(OCC5(CN6CCC(Oc7cnc(-c8cn([C@H](C(=O)N9C[C@H](O)C[C@H]9C(=O)N[C@@H](C)c9ccc(-c%10scnc%10C)cc9)C(C)C)nn8)cn7)CC6)CC5)nc4c3F)c12` [Compound 7, (2S,4R)-1-((S)-2-(4-(5-((1-((1-(((4-(1,1-dioxido-1,3-thiazinan-3-yl)-7-(8-ethyl-7-fluoro-3-hydroxynaphthalen-1-yl)-8-fluoropyrido[4,3-d]pyrimidin-2-yl)oxy)methyl)cyclopropyl)methyl)piperidin-4-yl)oxy)pyrazin-2-yl)-1H-1,2,3-triazol-1-yl)-3-methylbutanoyl)-4-hydroxy-N-((S)-1-(4-(4-methylthiazol-5-yl)phenyl)ethyl)pyrrolidine-2-carboxamide]: the IC50 was found to be 6.2 nM with AGS (Homo sapiens) and 31 nM in the experiment on SW620.
